Results as given in article PMC5464773 (eLife, 2017).

What was measured:
Assay type in all cases: cell-based
[1] = tested on: BCR-ABL-expressing B-lineage acute lymphoblastic leukemia cells dependent on Bcl-2; assay: BH3 profiling, mitochondrial depolarization (JC-1) in permeabilized cells; details: BH3 profiling fits Bcl-2, sigmoidal dose-response (variable slope); for Bottom (best-fit value): constrained (Bottom < 5 or 0 < Bottom < 5); for Top (best-fit value): constrained (Top > 78 or Top < 100); for LogEC50 (best-fit value): x = Log [Peptide] M, fits ambiguous or hit constraint
Experimental: We tested our designed peptides for Bfl-1 selective targeting by carrying out BH3 profiling of cells with known dependencies on anti-apoptotic proteins. In this assay, peptides are titrated into permeabilized cells, and mitochondrial depolarization is measured using the voltage-sensitive dye JC-1 (Figure 7A) ([Deng et al., 2007]). We tested the apoptotic sensitivity of BCR-ABL-expressing B-lineage acute lymphoblastic leukemia cell lines engineered to depend on Bcl-2, Bcl-xL, Mcl-1 or Bfl-1 overexpression for survival ([Koss et al., 2016]). […] EC50 values for inducing mitochondrial permeabilization in the engineered cell lines agreed well with trends in Bfl-1-binding affinities, as expected based on the mechanism of action (Figure 7C).
(§1) The creation and characterization of the BCR-ABL-expressing B-lineage acute lymphoblastic leukemia suspension cell lines with engineered dependencies on human versions of anti-apoptotic genes is detailed in [Koss et al. (2016)]). Cells were grown in RPMI (Life Technologies, Carlsbad, CA) with 10% fetal bovine serum, 2 mM L-glutamine, 10 mL/L 100x Pen/Strep (Life Technologies # 15140122), 25 mM HEPES and 10 mL/L 100x NEAA (Life Technologies, 11140050). The adherent cell lines PC-3 (RRID: CVCL_0035) and SF295 (RRID: CVCL_1690) are from the NCI60 panel ([Lorenzi et al., 2009]) and were grown in RPMI (Life Technologies) with 10% fetal bovine serum, 2 mM L-glutamine and 10 mL/L 100x Pen/Strep (Life Technologies # 15140122 ). Cell line identities were confirmed by STR profiling. The Lookout Mycoplasma PCR detection kit (Sigma) was used to detect mycoplasma infection. Mycoplasma was only detected in the PC-3 cell line, and internal controls were used to account for this phenotype.
Peptides were titrated by serial dilution in MEB buffer (150 mM Mannitol, 10 mM HEPES-KOH pH 7.5, 50 mM KCl, 0.02 mM EGTA, 0.02 mM EDTA, 0.1% BSA and 5 mM Succinate) containing 20 μg/mL oligomycin, 50 μg/mL digitonin, 2 μM JC-1 and 10 mM 2-mercaptoethanol in 384-well plates. Controls for no depolarization (1% DMSO) and complete depolarization with the mitochondrial oxidative phosphorylation uncoupler FCCP (20 μM) were included for data normalization. Cells were suspended at 1.67 × 10^6 cells/mL in MEB. 15 μL of cell suspension was added to each well containing 15 μL of treatment solution. Fluorescence emission was measured every 5 min for 3 hr at […] with 525 nm excitation on a Tecan Safire2. To produce percent depolarization, the area under the resultant curve was calculated and normalized to the assay controls. Peptide titration curves were fit to sigmoidal dose-response curves using Graphpad PRISM seven to obtain EC50 values.

[2] = tested on: BCR-ABL-expressing B-lineage acute lymphoblastic leukemia cells dependent on Bcl-xL; assay: iBH3 profiling, cytochrome c release; details: iBH3 fits Bcl-xL, sigmoidal dose-response (variable slope); for LogEC50 (best-fit value): log of EC50, x axis Log [Peptide M]; for Bottom (best-fit value) / Top (best-fit value): fit of 3 replicates
Experimental: (§2) As an additional test for on-pathway activity, we measured cytochrome c release in the same engineered cell lines in response to peptide treatment, using iBH3 profiling ([Ryan et al., 2016]).
as §1, with “infection.” for “infection. Mycoplasma was only detected in the PC-3 cell line, and internal controls were used to account for this phenotype.”
(§3) Cells were suspended in MEB buffer (150 mM mannitol, 50 mM KCl, 10 mM HEPES, 5 mM succinic acid, 20 μM EGTA, 20 μM EDTA, 0.1% BSA, final pH 7.4) at 0.5*10^6 cells/mL (adherent lines) or 2 *10^6 cells/mL (suspension lines). Cell suspension was added to a 384 non-binding well plate (10 μL/well) containing peptides at 2X final concentration in MEB with 20 μg/mL digitonin. Plates were incubated at 25°C for 1 hr. To terminate exposure, 10 μL of 4% formaldehyde in PBS was added to each well, plates were incubated for 10 min before addition of 10 μL N2 buffer (1.7M Tris, 1.25M glycine, pH 9.1) for 5 min. 10 μL of staining buffer (2% Tween20, 10% BSA, PBS) containing 10 μg/mL Hoechst 33342 and 1.25 μg/mL anti-cytochrome c Alexa647 conjugate (BioLegend clone 6H2.B4) was added to each well before sealing the plate and shaking overnight. The median fluorescence of the cytochrome c channel of Hoechst positive singlets was recorded by an IntelliCyt iQue Screener Plus. Cytochrome c release was determined by normalizing the median fluorescence intensity (MFI) data to positive control wells (Alamethicin) and negative control wells (DMSO) as follows: Cytochromecrelease=1−(MFIsample−MFIAlamethicin)/(MFIDMSO−MFIAlamethicin)

[3] = tested on: BCR-ABL-expressing B-lineage acute lymphoblastic leukemia cells dependent on Bcl-2; assay: iBH3 profiling, cytochrome c release; details: iBH3 fits Bcl-2, sigmoidal dose-response (variable slope); for LogEC50 (best-fit value): log of EC50, x axis Log [Peptide M]; for Bottom (best-fit value) / Top (best-fit value): fit of 3 replicates
Experimental: as §2
as §1, with “infection.” for “infection. Mycoplasma was only detected in the PC-3 cell line, and internal controls were used to account for this phenotype.”
as §3

| Substance | HillSlope (best-fit value) [1] | Bottom (best-fit value) [1] | Top (best-fit value) [1] | LogEC50 (best-fit value) [1] | LogEC50 (best-fit value) [2] | HillSlope (best-fit value) [2] | Bottom (best-fit value) [2] | Top (best-fit value) [2] | LogEC50 (best-fit value) [3] | HillSlope (best-fit value) [3] | Bottom (best-fit value) [3] | Top (best-fit value) [3] |
| --- | --- | --- | --- | --- | --- | --- | --- | --- | --- | --- | --- | --- |
| Ac-QWVREIAAGLRLAADNVNAQLER-NH2 [FS1] | 0.3224 | ~ 5 | ~ 78 | ~ -2.821 | ~ -4.446 | ~ 9.069 | 0.1572 | 0.461 | -3.946 | 0.814 | 0.1541 | 1.46 |
| Ac-QWVREIAAGLRRAADDVNAQVER-NH2 [FS2] | 1.067 | ~ 5 | ~ 100 | -4.482 | ~ -3.991 | ~ 14.29 | 0.1223 | ~ 0.6231 | -4.564 | 1.006 | 0.134 | 1.087 |
| Ac-QWIREIAAGLRRFADILNAQVER-NH2 [FS3] | 1.964 | ~ 5 | ~ 100 | -5.077 | -5.617 | 1.589 | 0.1375 | 0.9805 | -5.822 | 2.312 | 0.1754 | 0.986 |
